According to US20230348394A1, “COMPOSITIONS AND METHODS FOR TREATING MUSCULAR DYSTROPHIES” (The Regents of the University of California, priority 2020, published 2023):

Experiments:
[1] = test system: SSPN-HiBiT protein (sarcospan); experiment: C2C12 SSPN-HiBiT protein reporter assay (12-well and 384-well format); format: cell-based, murine
Experimental: C2C12 SSPN-HiBiT myoblasts were seeded at 25,000 cells per well in 2 ml of growth media in 12 well-plates and incubated for 3 days. Upon reaching confluency, the growth media was replaced with 2 ml of differentiation media. At day 2 of differentiation, the media on the cells was replaced with 2 ml of differentiation media containing compounds at a final concentration of 5.5 μM in 0.06% DMSO. For vehicle control-treated cells, 0.06% DMSO was added to the cells. After 48 hrs the cells were washed with PBS and frozen for 2-24 hrs. The plates containing cells were thawed on ice and 100 μl of ice-cold modified RIPA buffer containing 1% Triton X-100, 0.05% DOC, 0.05% SDS, and Halt Protease Inhibitor was added to each well. Cells were scratched, transferred into 1.5 ml tubes, and centrifuged for 20 min at 16,000×g at 4° C. The cell lysates were transferred into new tubes. DC assay was performed on cell lysates to determine protein concentration. White walled, white bottom 384-well microplates (Greiner) were prefilled with 15 μl of PBS and 15 μl of cell lysates were added to each well in triplicate. Then 30 μl Nano-Glo HiBiT Lytic Detection working solution was added to each well and incubated for 30 min at RT with shaking. The luminescence was measured on the EnVision plate reader and the signal was normalized to protein concentration and signal from vehicle-treated controls.
C2C12 SSPN-HiBiT myoblasts were seeded at 500 cells per well in 50 μl of growth media in 384-well white, clear bottom microplates (Greiner) and incubated for 3 days. Upon reaching confluency, the growth media was replaced with 50 μl of differentiation media consisting of phenol-red free DMEM with 2% horse serum (Sigma-Aldrich) using an EL406 combination washer dispenser (Biotek). At day 2 of differentiation, the media on the cells was aspirated, left with a residual volume of 10 μl, and replaced with 30 μl of fresh differentiation media. 0.5 μl of small molecule in DMSO or DMSO alone (for vehicle and positive control wells) were added to each well using a Biomek Fx (Beckman). To ensure proper mixing of the DMSO, 50 μl of additional differentiation media was added to all wells except the positive control treated wells. The final concentration of compound in each treated well was 0.5-10 μM in 0.55% DMSO and 0.55% DMSO only for vehicle. After 48 hrs of incubation, the plate was washed with phenol red-free DMEM, aspirated, and left with a residual volume of 5 μl using EL406 combination washer dispenser. After the wash, 25 μl of differentiation media containing 12 μM DRAQ5 nuclear stain was added to reach a final concentration 10 μM in each well and incubated for 15 min at 37° C. with 5% CO2. The cells were imaged using ImageXpress Micro Confocal High Content Imaging System (Molecular Devices). The nuclei count of imaged cells were determined using a custom module analysis in MetaXpress Analysis software (Molecular Devices). After imaging and analysis, the plate was aspirated, left with a residual volume of 5 μl and placed at −80° C. for 2-24 hrs. The plate was thawed at RT and 25 μl of PBS was added, followed by 30 μl of Nano-Glo HiBiT Lytic Detection working solution prepared according manufacturer recommendations. Luminescence was measured using the EnVision plate reader and the signal of each well was normalized to nuclei count and signal from vehicle-treated controls.
In order to effectively test new analogues, we created method for detecting SSPN protein in cells, e.g., SSPN-HiBiT. SSPN-HiBiT based on a murine C2C12 cell line expressing endogenous SSPN protein with an N-term fusion protein called the HiBiT, an 11 amino acid subunit of a luciferase enzyme (FIG. 10a). The SSPN-HiBiT protein is quantified through addition of substrate and a larger subunit of the luciferase enzyme to catalyze the formation of luminescent signal. […]

SSPN mRNA = experiment: SSPN gene expression in C2C12, H2K WT and H2K mdx myoblasts; format: cell-based, murine; details: 24 hours, 1, 5 and 10 μM
Experimental: FIG. 9. OT-9 is effective in multiple myoblast lines. […] Myoblasts were treated for 24 hours with 1, 5, and 10 μM of OT-9 or PC1-36. Gene expression was normalized to β-actin and vehicle-treated cells (0.1% DMSO). Data represents individual replicates and mean value. n=3-6. SSPN, sarcospan; R.U., relative units. *p<0.05, **p<0.01, ***p<0.001, ****p<0.0001.
RNA from myotubes treated for 48 hrs was extracted from cells using Trizol-based (Thermo Fisher Scientific) phase separation, Chomczynski et al., Biotechniques. 1993; 15(3):532-4, 6-7. RNA concentrations were determined using a NanoDrop 1000 (Thermo Fisher Scientific) and 750 ng of RNA in a 20 Id reaction was reverse transcribed using iScript cDNA synthesis (Bio-Rad) with the following cycling conditions: 25° C. for 5 mins, 42° C. for 30 mins, 85° C. for 5 mins. For mouse qPCR, SsoFast EvaGreen Supermix (Bio-Rad), 400 nM of each optimized forward and reverse primer (SSPN F: 5′ […] 3′, SSPN R: 5′ […] 3′, BACT F: 5′ […] 3′, BACT R: 5′ […] 3′), and cDNA corresponding to 37.5 ng RNA were used to amplify cDNA measured by QuantStudio 5 Real-Time PCR System (Thermo Fisher Scientific) with the following reaction conditions: 55° C. for 2 mins, 95° C. for 2 mins, 40 cycles of 95° C. for 10 seconds and 62° C. for 30 seconds, and dissociation stage. […]

CCN(CC)c1ccc2cc(C(=O)Nc3ccc(C(=O)N4CCCCCC4)cc3)c(=O)oc2c1 [OT-9]
SSPN-HiBiT reporter response ([1]; 0.5-10 μM, 12-well and 384-well plate formats): dose-sensitive increases in SSPN | SSPN-HiBiT, fold change over vehicle ([1]; Table 1, *p<0.05): 2.29* fold change over vehicle | SSPN mRNA levels in myoblasts (SSPN mRNA): increased SSPN mRNA levels in all myoblast lines
